Laboratory results taken from ChEMBL document CHEMBL3639280, “2-Phenyl-1-[4-(2-Aminoethoxy)-Benzyl]-Indole and estrogen formulations” (2014).

Target: T1, Estrogen receptor (Homo sapiens, UniProt P03372)
T1 sequence (P03372 whole entry): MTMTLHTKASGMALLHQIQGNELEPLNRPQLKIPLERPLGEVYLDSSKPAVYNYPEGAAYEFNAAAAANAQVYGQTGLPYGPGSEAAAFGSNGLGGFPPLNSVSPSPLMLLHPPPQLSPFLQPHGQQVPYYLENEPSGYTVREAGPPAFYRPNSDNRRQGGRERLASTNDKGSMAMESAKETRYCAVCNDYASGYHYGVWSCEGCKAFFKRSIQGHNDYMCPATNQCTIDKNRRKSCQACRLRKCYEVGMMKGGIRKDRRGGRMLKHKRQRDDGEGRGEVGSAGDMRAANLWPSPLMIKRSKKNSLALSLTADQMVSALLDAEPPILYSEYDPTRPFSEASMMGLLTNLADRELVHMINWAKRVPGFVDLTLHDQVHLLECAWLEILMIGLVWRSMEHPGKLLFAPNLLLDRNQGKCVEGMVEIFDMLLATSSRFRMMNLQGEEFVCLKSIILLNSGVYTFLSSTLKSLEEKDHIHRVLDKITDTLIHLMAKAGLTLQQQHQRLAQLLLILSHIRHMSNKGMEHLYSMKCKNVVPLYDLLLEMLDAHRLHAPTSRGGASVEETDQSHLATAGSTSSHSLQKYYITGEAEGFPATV
Assay: Binding Assay: The competition assay was performed in a 96-well plate (polystyrene*) which binds <2.0% of the total input [3H]-17beta-estradiol and each data point was gathered in triplicate. 100 uG/100 uL of the receptor preparation was aliquoted per well. A saturating dose of 2.5 nM [3H]17beta-estradiol+competitor (or buffer) in a 50 uL volume was added in the preliminary competition when 100x …

- IC50: 1 nM
Compound: Cc1c(-c2ccc(O)cc2)n(Cc2ccc(OCCN3CC4CCC3C4)cc2)c2ccc(O)cc12 (stereo unspecified)
